Assay results as given in ChEMBL document CHEMBL5370603, “N-(2-Aminophenyl)-benzamide Inhibitors of Class I HDAC Enzymes with Antiproliferative and Antifibrotic Activity” (J Med Chem, 2023).
The source made the active and inactive calls. No cut-off for these calls is given here.

How the values were obtained:
[1] = target: T1, Protein deacetylase HDAC6 (Homo sapiens) (UniProt Q9UBN7); assay: Inhibition of HDAC6 in human A549 cells assessed as increase in acetylated alpha-tubulin level at 5 uM incubated for 48 hrs by immunoblot analysis; type: cell-based
T1 sequence (whole entry): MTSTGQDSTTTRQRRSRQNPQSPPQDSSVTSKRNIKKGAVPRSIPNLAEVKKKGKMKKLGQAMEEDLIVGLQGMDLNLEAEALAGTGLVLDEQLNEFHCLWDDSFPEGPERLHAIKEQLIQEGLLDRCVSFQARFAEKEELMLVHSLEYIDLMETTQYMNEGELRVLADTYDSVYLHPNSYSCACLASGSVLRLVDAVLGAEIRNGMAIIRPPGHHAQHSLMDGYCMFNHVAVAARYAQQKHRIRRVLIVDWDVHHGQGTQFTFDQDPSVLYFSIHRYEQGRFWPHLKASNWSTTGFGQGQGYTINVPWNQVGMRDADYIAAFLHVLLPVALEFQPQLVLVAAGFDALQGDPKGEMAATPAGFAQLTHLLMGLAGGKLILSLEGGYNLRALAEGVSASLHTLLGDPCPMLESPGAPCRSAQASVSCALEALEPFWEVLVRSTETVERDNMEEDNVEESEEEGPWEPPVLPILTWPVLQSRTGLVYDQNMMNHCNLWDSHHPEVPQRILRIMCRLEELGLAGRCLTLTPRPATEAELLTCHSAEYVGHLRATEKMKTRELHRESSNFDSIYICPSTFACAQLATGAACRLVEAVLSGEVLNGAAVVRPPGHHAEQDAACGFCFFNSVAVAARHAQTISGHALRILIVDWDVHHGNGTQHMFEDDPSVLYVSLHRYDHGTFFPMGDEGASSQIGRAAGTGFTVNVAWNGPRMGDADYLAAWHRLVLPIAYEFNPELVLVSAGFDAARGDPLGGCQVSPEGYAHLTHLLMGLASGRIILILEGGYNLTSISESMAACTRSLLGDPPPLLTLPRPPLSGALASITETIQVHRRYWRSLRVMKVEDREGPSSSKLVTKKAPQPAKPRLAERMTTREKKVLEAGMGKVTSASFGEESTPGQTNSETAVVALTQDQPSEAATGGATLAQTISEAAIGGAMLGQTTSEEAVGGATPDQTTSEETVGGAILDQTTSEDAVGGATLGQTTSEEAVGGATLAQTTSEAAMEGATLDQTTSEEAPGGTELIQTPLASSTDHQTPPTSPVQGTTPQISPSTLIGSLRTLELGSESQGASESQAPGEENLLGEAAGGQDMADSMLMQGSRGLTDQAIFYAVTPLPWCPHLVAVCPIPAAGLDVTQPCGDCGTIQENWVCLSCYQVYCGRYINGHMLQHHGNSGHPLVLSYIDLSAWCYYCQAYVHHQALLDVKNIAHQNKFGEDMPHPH

[2] = target: T2, Class 1 histone deacetylase (Homo sapiens) (UniProt Q13547+O15379+Q92769+Q9BY41); assay: Inhibition of class I HDAC in human A549 cells assessed as increase in histone H3 acetylation at 5 uM incubated for 48 hrs by immunoblot analysis; type: cell-based
A549 = assay: Antiproliferative activity against human A549 cells assessed as inhibition of cell growth incubated for 72 hrs by MTT assay; type: functional, cell-based; details: A549, 72 h
Histone deacetylase 1 = Histone deacetylase 1 (Homo sapiens, UniProt Q13547); assay: Inhibition of human recombinant HDAC1 using Ac-Leu-Gly-Lys(Ac)-AMC as substrate preincubated with enzyme for 30 mins followed by substrate addition and measured after 90 mins by fluorescence based analysis
Chain of Histone deacetylase 1 (Q13547 whole entry): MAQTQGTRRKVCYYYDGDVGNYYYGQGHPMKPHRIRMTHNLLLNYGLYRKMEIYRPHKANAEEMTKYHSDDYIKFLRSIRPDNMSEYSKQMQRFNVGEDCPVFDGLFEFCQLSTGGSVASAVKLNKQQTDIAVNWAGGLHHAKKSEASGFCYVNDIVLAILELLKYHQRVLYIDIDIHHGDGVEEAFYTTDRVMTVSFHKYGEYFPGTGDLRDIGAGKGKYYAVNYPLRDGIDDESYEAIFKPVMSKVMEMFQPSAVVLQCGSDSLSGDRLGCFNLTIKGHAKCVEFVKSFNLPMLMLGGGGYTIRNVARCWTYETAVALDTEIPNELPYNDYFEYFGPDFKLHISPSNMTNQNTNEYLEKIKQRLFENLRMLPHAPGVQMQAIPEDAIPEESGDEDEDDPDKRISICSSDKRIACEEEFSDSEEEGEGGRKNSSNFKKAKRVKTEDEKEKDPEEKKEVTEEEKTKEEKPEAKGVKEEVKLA

Histone deacetylase 3 = Histone deacetylase 3 (Homo sapiens, UniProt O15379); assay: Inhibition of human recombinant HDAC3 using Ac-Leu-Gly-Lys(Ac)-AMC as substrate preincubated with enzyme for 30 mins followed by substrate addition and measured after 90 mins by fluorescence based analysis
Chain of Histone deacetylase 3 (O15379 whole entry): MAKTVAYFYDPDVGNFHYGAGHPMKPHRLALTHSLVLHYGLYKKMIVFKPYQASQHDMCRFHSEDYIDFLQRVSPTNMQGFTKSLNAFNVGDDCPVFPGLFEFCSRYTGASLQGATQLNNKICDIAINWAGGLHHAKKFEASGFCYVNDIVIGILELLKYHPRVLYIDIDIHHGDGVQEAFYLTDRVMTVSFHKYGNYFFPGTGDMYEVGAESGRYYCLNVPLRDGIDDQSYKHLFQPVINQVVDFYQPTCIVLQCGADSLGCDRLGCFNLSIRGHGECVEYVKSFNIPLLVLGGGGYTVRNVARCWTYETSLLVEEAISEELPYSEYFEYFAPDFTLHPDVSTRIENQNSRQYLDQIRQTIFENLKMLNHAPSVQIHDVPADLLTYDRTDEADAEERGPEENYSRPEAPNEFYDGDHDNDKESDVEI

SF-268 = assay: Antiproliferative activity against human SF-268 cells assessed as inhibition of cell growth incubated for 72 hrs by MTT assay; type: functional, cell-based; details: SF-268, 72 h
Histone deacetylase 8 = target: T3, Histone deacetylase 8 (Homo sapiens, UniProt Q9BY41); assay: Inhibition of C-terminal His-tagged human recombinant full length HDAC8 (1 to 377 residues) expressed in Sf9 cells using Ac-Leu-Gly-Lys(trifluoroAc)-AMC as substrate preincubated with enzyme for 30 mins followed by substrate addition and measured after 90 mins by fluorescence based analysis
T3 sequence (Q9BY41 whole entry): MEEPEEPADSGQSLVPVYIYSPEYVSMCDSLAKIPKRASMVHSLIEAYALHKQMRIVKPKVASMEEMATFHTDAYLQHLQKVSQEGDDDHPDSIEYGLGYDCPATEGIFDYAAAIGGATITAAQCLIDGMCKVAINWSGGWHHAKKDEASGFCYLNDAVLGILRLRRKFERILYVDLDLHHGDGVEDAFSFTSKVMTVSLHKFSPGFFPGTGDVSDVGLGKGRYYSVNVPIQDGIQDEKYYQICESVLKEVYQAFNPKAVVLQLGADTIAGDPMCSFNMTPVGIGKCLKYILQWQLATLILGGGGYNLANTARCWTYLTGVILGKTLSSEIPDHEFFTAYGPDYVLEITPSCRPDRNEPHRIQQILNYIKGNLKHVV

Mus musculus [3] = assay: Anti-fibrotic activity against BLM-induced pulmonary fibrosis C57BL/6 mouse model assessed as reduction in collagen deposition in lungs at 30 mg/kg, ip bid for 15 days starting from 1 day before BLM challenge by Sirius Red staining based analysis; type: functional, organism-based; details: time 15.0 day
Mus musculus [4] = assay: Anti-fibrotic activity against BLM-induced pulmonary fibrosis C57BL/6 mouse model assessed as reduction in pulmonary edema by measuring decrease in total protein concentration in BALF at 30 mg/kg, ip bid for 15 days starting from 1 day before BLM challenge by Bradford assay; type: functional, organism-based; details: time 15.0 day
Mus musculus [5] = assay: Anti-fibrotic activity against BLM-induced pulmonary fibrosis C57BL/6 mouse model assessed as reduction in fibrotic masses in lungs at 30 mg/kg, ip bid for 15 days starting from 1 day before BLM challenge by Hematoxylin-Eosin staining based analysis; type: functional, organism-based; details: time 15.0 day
Histone deacetylase 4 = Histone deacetylase 4 (Homo sapiens, UniProt P56524); assay: Inhibition of N-terminal GST-tagged/C-terminal His tagged human recombinant HDAC4 (627 to 1084 residues) expressed in baculovirus-infected Sf9 cells using Ac-Leu-Gly-Lys(trifluoroAc)-AMC as substrate preincubated with enzyme for 15 mins followed by substrate addition and measured after 60 mins by fluorescence based analysis
Chain of Histone deacetylase 4 (P56524 whole entry, the tested form may be a part): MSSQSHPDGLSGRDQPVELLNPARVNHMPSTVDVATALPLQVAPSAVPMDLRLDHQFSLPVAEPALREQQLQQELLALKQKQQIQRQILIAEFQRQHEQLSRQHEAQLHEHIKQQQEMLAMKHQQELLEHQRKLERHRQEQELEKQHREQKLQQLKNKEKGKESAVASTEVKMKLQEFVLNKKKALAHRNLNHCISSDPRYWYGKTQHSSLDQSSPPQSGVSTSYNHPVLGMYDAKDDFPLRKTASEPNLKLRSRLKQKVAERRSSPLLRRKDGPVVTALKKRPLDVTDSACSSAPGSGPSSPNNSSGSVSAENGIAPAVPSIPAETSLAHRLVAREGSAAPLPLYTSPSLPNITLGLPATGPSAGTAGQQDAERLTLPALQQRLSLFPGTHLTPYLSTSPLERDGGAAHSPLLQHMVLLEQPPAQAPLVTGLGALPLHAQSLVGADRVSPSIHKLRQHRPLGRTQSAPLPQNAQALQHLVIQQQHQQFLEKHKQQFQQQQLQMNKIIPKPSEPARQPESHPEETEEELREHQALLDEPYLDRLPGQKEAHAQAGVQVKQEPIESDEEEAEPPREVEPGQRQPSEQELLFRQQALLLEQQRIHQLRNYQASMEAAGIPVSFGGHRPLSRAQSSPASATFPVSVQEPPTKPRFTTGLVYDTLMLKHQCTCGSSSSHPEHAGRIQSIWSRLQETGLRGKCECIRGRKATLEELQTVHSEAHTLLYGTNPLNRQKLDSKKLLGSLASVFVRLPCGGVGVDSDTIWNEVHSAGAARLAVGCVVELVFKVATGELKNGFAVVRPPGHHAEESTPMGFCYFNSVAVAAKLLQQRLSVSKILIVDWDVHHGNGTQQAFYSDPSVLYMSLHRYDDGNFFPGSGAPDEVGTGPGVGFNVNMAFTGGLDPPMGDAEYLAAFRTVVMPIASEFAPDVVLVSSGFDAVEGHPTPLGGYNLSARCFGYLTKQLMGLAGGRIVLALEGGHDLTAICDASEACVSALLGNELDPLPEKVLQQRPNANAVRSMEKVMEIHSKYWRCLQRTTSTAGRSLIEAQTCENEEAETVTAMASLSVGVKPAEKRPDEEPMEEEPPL

Mus musculus [6] = assay: Anti-fibrotic activity against BLM-induced pulmonary fibrosis C57BL/6 mouse model assessed as reduction in soluble collagen protein level in BALF at 30 mg/kg, ip bid for 15 days starting from 1 day before BLM challenge by Direct Red assay; type: functional, organism-based; details: time 15.0 day
Mus musculus [7] = assay: Anti-fibrotic activity against BLM-induced pulmonary fibrosis C57BL/6 mouse model assessed as reduction in Col1a1 gene expression in lungs at 30 mg/kg, ip bid for 15 days starting from 1 day before BLM challenge by qRT-PCR analysis; type: functional, organism-based; details: time 15.0 day
[8] = Toxicity against human primary lung fibroblasts assessed as effect on cell viability upto 20 uM incubated for 72 hrs by MTT assay; type: cell-based; details: fibroblast
[9] = target: T2, Class 1 histone deacetylase (Homo sapiens); assay: Inhibition of class I HDAC in human A549 cells assessed as downregulation of EGFR protein expression at 5 uM incubated for 48 hrs by western blot analysis; type: cell-based
Fibroblast = assay: Anti-fibrotic activity in human primary lung fibroblast assessed as inhibition of TGFbeta1-induced COL1A1 mRNA expression at 5 to 10 uM pretreated for 1 hr followed by TGFbeta1 stimulation and measured after 24 hrs by qRT-PCR analysis; type: functional, cell-based; details: dose 5-10 µM, time 25.0 hrs
[10] = target: T4, Protein deacetylase HDAC6 (Homo sapiens, UniProt Q9UBN7); assay: Inhibition of C-terminal FLAG-tagged human recombinant full length HDAC6 expressed in baculovirus expression system using Boc-Lys(Ac)-AMC as substrate preincubated with enzyme for 15 mins followed by substrate addition and measured after 60 mins by fluorescence based analysis
T4 sequence (Q9UBN7 whole entry): T1 sequence (whole entry)

Mus musculus [11] = assay: Anti-fibrotic activity against BLM-induced pulmonary fibrosis C57BL/6 mouse model assessed as reduction in pulmonary inflammation by measuring decrease in cell number infiltration in BALF at 30 mg/kg, ip bid for 15 days starting from 1 day before BLM challenge by hematocytometer analysis; type: functional, organism-based; details: time 15.0 day
Caco-2 = assay: Antiproliferative activity against human Caco-2 cells assessed as inhibition of cell growth incubated for 72 hrs by MTT assay; type: functional, cell-based; details: Caco-2, 72 h
Histone deacetylase 2 = Histone deacetylase 2 (Homo sapiens, UniProt Q92769); assay: Inhibition of human recombinant HDAC2 using Ac-Leu-Gly-Lys(Ac)-AMC as substrate preincubated with enzyme for 30 mins followed by substrate addition and measured after 90 mins by fluorescence based analysis
Chain of Histone deacetylase 2 (Q92769 whole entry): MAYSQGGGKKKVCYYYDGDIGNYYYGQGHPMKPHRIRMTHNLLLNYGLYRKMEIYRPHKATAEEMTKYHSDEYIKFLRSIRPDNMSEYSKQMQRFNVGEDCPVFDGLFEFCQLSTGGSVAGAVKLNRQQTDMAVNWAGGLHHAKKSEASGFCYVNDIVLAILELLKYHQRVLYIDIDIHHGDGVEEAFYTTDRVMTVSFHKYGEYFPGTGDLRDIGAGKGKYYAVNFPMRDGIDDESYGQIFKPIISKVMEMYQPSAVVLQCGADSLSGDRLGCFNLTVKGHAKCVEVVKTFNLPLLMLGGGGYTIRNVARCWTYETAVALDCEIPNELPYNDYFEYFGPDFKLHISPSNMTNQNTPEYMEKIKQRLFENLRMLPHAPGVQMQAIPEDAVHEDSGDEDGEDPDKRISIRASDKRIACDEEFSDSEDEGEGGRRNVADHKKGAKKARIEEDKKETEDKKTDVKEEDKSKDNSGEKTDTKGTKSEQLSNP

| inhibition [1] | inhibition [2] | IC50 (A549) | IC50 (Histone deacetylase 1) | IC50 (Histone deacetylase 3) | IC50 (Histone deacetylase 8) | IC50 (Histone deacetylase 4) | inhibition [9] | IC50 [10] | IC50 (Caco-2) | IC50 (Histone deacetylase 2) | Compound | IC50 (SF-268) | Activity (Mus musculus [3]) | Activity (Mus musculus [4]) | Activity (Mus musculus [5]) | Activity (Mus musculus [6]) | Activity (Mus musculus [7]) | Activity [8] | Activity (Fibroblast) | Activity (Mus musculus [11]) |
| --- | --- | --- | --- | --- | --- | --- | --- | --- | --- | --- | --- | --- | --- | --- | --- | --- | --- | --- | --- | --- |
| inactive | Active | 6 µM | 0.259 µM | 0.139 µM | > 10 µM | > 100 µM | Active | > 10 µM |  |  | Cl.Cl.Nc1ccccc1NC(=O)c1ccc(COc2ccc(CNC(=O)[C@H]3CCCN3)cc2)cc1 | 3.1 µM | Active | Active | Active | Active | Active | Non-Toxic | Active | Active |
|  |  | 6.8 µM | 0.1 µM | 0.361 µM | > 10 µM | > 100 µM |  | > 100 µM | 1.9 µM | 0.116 µM | Nc1ccccc1NC(=O)c1ccc(COc2ccc(CNC(=O)[C@@H]3CCC(=O)N3Cc3ccccc3)cc2)cc1 | 4.8 µM | Active | Active | Active | Active | Active | Non-Toxic | Active | Active |
